Several values for one entry are separate records, joined by “and”; a condition that tells them apart may be missing. Equal entries are not always repeated.

The subject of experiment [1] is LC3-II. Description: Rat in vivo OHT model, Western blot of LC3-II. Conditions: in vivo OHT eyes, 3 weeks after microbead injection, relative units, control = 1.00; for LC3-II expression (FIG. 6B), individual experiments 1-4: single values. The procedure: (§1) Example 7. Rat in vivo OHT model induced by intracameral injection of microbeads—For induction of ocular hypertension (OHT) in vivo, sterile 6 μm polystyrene microbeads were injected into the anterior chamber of the left eye of each animal using a single-step, sclero-corneal tunnel approach with a 35G nanoneedle (FIG. 4A). […] After stabilization of elevated IOP, animals were randomly divided into 3 groups (non-treated OHT, AlloP injection, and ent-AlloP injection). AlloP and ent-AlloP were administered as a one-time intravitreal injection one week following bead injection. Non-treated OHT animals received sterile vehicle intravitreally. As a further control, vehicle was intravitreally injected 7 days after intracameral administration of 10 μl of PBS. Three weeks after bead injections, IOP was 26.7±3.7 mmHg in non-treated OHT eyes compared to 9.9±0.9 mmHg in control eyes.
Rat in vivo OHT model—8-week old male Sprague-Dawley rats were deeply anesthetized with an intraperitoneal injection of a mixture of medetomidine hydrochloride (Cat #133-17474, CAS. No 86347-15-1, Wako Pure Chemical Industries Ltd., Osaka, Japan, 0.15 mg/kg), midazolam (Cat #135-13791, CAS. No 58786-99-5, Wako Pure Chemical Industries Ltd., 2 mg/kg), and butorphanol tartrate (Cat #021-19001, CAS. No […], Wako Pure Chemical Industries Ltd., 2.5 mg/kg), and intraocular pressure was increased unilaterally to approximately 35 mmHg, by intracameral injection of polystyrene microbeads using a single-step, sclero-corneal tunnel approach with a 35G-gauge nanoneedle (#LNAN-3505LM, Saito Medical Instruments Inc., Tokyo, Japan) connected to 100 μl WPI Nanofil 100 microsyringe (World Precision Instruments, Inc., Sarasota, FL). Sterile 6 μm polystyrene microbeads in a 1×10^6 microbeads/ml solution (Molecular Probes, Eugene, OR, USA) were concentrated to obtain a 1×10^7 microbeads/ml solution. […] Ocular hypertension was monitored preoperatively, and at 3 days, 1 week, 2 weeks or 3 weeks after the beads were injected. IOP was measured using a laboratory tonometer (TonoLab, Icare, Finland). […]
On the technique in general: A western blot detects proteins with antibodies after separation by electrophoresis.

Experiment [2] has as its system mouse model of Niemann-Pick Type C disease. The conditions noted are these: cited from earlier work.
In experiment [3] the test system is NFL and optic nerves (ON). Put plainly: Rat in vivo OHT model, electron microscopy of AP and DAV in NFL and optic nerve. The conditions noted are these: in vivo OHT eyes; for Autophagosomes (AP) in the NFL (FIG. 5M), Total / Degenerative autophagic vacuoles (DAV) in the NFL (FIG. 5N), Total: Total of 10 areas; for Autophagosomes (AP)/25 μm2 in the NFL (FIG. 5M), individual areas 1-10 / Degenerative autophagic vacuoles (DAV)/25 μm2 in the NFL (FIG. 5N), individual areas 1-10 / Autophagosomes (AP)/100 μm2 in the ON (FIG. 5Y), individual areas 1-10 / Degenerative autophagic vacuoles (DAV)/100 μm2 in the ON (FIG. 5Z), individual areas 1-10: single values. How it is done:
as §1
Rat in vivo OHT model—8-week old male Sprague-Dawley rats were deeply anesthetized with an intraperitoneal injection of a mixture of medetomidine hydrochloride (Cat #133-17474, CAS. No 86347-15-1, Wako Pure Chemical Industries Ltd., Osaka, Japan, 0.15 mg/kg), midazolam (Cat #135-13791, CAS. No 58786-99-5, Wako Pure Chemical Industries Ltd., 2 mg/kg), and butorphanol tartrate (Cat #021-19001, CAS. No […], Wako Pure Chemical Industries Ltd., 2.5 mg/kg), and intraocular pressure was increased unilaterally to approximately 35 mmHg, by intracameral injection of polystyrene microbeads using a single-step, sclero-corneal tunnel approach with a 35G-gauge nanoneedle (#LNAN-3505LM, Saito Medical Instruments Inc., Tokyo, Japan) connected to 100 μl WPI Nanofil 100 microsyringe (World Precision Instruments, Inc., Sarasota, FL). Sterile 6 μm polystyrene microbeads in a 1×10^6 microbeads/ml solution (Molecular Probes, Eugene, OR, USA) were concentrated to obtain a 1×10^7 microbeads/ml solution. This solution was suspended in PBS. The microbeads suspended in PBS were aspirated into a 100 μl Hamilton microsyringe and injected into the anterior chamber of […] of each animal. 10 μl of the microbead suspension were injected without contacting the cornea or iris with the needle. After stabilization of the elevated IOP, animals were randomly divided into 3 groups (non-treated OHT, AlloP injection, and ent-AlloP injection). AlloP and ent-AlloP were dissolved in 20% w/v (2-Hydroxypropyl)-β-cyclodextrin (2HBCD) in saline solution at concentration of 0.05% (w/v) solution, and injected into the vitreous chamber in a total volume of 1 μl using a Hamilton syringe adapted with a 35 G-gauge nanoneedle 1 week after the beads were injected under halothane inhalation anesthesia. OHT animals (vehicle control) received sterile 1 μl 20% (w/v) 2HBCD with PBS. As a further control, 1 μl 20% (w/v) 2HBCD was intravitreally injected 7 days after intracameral injection with 10 μl of PBS. The number of animals used in each experiment is indicated in the corresponding method. […] Ocular hypertension was monitored preoperatively, and at 3 days, 1 week, 2 weeks or 3 weeks after the beads were injected. IOP was measured using a laboratory tonometer (TonoLab, Icare, Finland).
Electron Microscopy—Retinal specimens were trimmed to a smaller size, and ultrathin sections (75 nm) were cut with a diamond knife and suspended over formvar-coated slot grids (1×2 mm opening). The sections were stained with uranyl acetate and lead citrate and viewed in a transmission electron microscope (H-7650, Hitachi High-Technologies Corp., Tokyo, Japan). Numbers of AP and DAV inside NFLs and axons were determined as the sum in 10 different areas of 25 μm^2 each from each sample. The analysis was performed in three eyes per experimental condition.

For experiment [4], the system named is primary astrocyte cultures. Conditions: cited from earlier work.

`CC(=O)[C@H]1CC[C@H]2[C@@H]3CC[C@H]4C[C@H](O)CC[C@]4(C)[C@H]3CC[C@]12C` [AlloP, allopregnanolone]: in experiment [1] (Average of 4), the “LC3-II expression (FIG. 6B), Average” value stood at 3.00. In addition, the “LC3-II expression (FIG. 6B), individual experiments 1-4” value in experiment [1] is 2.73 and 3.32 and 2.82 and 3.11. The autophagy entry in experiment [2] is on record as “activate autophagy”. For the same molecule, in experiment [3] (intravitreal, Average of 10), the “Degenerative autophagic vacuoles (DAV)/25 μm2 in the NFL (FIG. 5N), Average” value is given as 0.5 /25 μm2. In experiment [3] (intravitreal), the “Autophagosomes (AP) in the NFL (FIG. 5M), Total” value amounted to 12; the “Degenerative autophagic vacuoles (DAV) in the NFL (FIG. 5N), Total” value turned out to be 5; the “Autophagosomes (AP)/25 μm2 in the NFL (FIG. 5M), individual areas 1-10” value is 2 /25 μm2 (2×) and 1 /25 μm2 (8×); the “Degenerative autophagic vacuoles (DAV)/25 μm2 in the NFL (FIG. 5N), individual areas 1-10” value is 0 /25 μm2 (7×) and 2 /25 μm2 (2×) and 1 /25 μm2. In experiment [3] (optic nerve, Average of 10), the “Autophagosomes (AP)/100 μm2 in the ON (FIG. 5Y), Average” value was 1.1 /100 μm2 and the “Degenerative autophagic vacuoles (DAV)/100 μm2 in the ON (FIG. 5Z), Average” value is 0.0 /100 μm2. In addition, in experiment [3] (optic nerve), the “Autophagosomes (AP)/100 μm2 in the ON (FIG. 5Y), individual areas 1-10” value is 1 /100 μm2 (9×) and 2 /100 μm2; the “Degenerative autophagic vacuoles (DAV)/100 μm2 in the ON (FIG. 5Z), individual areas 1-10” value is given as 0 /100 μm2. Also, the autophagy entry in experiment [4] is “activate autophagy”.

Consider `CC(=O)[C@@H]1CC[C@@H]2[C@H]3CC[C@@H]4C[C@@H](O)CC[C@@]4(C)[C@@H]3CC[C@]21C` [ent-AlloP, ent-allopregnanolone], for which the “LC3-II expression (FIG. 6B), individual experiments 1-4” value in experiment [1] was 4.96 and 4.97 and 4.27 and 5.04. Besides, in experiment [3] (intravitreal), the “Autophagosomes (AP) in the NFL (FIG. 5M), Total” value is listed as 1; the “Degenerative autophagic vacuoles (DAV) in the NFL (FIG. 5N), Total” value amounted to 22; the “Autophagosomes (AP)/25 μm2 in the NFL (FIG. 5M), individual areas 1-10” value was 0 /25 μm2 (9×) and 1 /25 μm2; the “Degenerative autophagic vacuoles (DAV)/25 μm2 in the NFL (FIG. 5N), individual areas 1-10” value is 1 /25 μm2 and 2 /25 μm2 (5×) and 4 /25 μm2 (2×) and 3 /25 μm2 and 0 /25 μm2. Also, in experiment [3] (optic nerve), the “Autophagosomes (AP)/100 μm2 in the ON (FIG. 5Y), individual areas 1-10” value is 0 /100 μm2 (9×) and 1 /100 μm2; the “Degenerative autophagic vacuoles (DAV)/100 μm2 in the ON (FIG. 5Z), individual areas 1-10” value is 0 /100 μm2 and 1 /100 μm2 (8×) and 2 /100 μm2.

The values above are taken from patent US20240041898A9, “NEUROSTEROIDS AND ENANTIOMERS THEREOF FOR THE PREVENTION AND TREATMENT OF NEURODEGENERATIVE CONDITIONS” (priority 2019, published 2024).
